# PubChem BioAssay (NCI)
#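 Method: 48-hour compound exposure of cells in 96-well plates, five concentrations, linear interpolation of endpoints. At the TGI there is no net growth.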
# Tests used:
# Experiment in all cases: inhibition of tumour cell growth, NCI panel, 48 h
# 786-0 renal = tested on: 786-0 renal
# A498 renal = tested on: A498 renal
# A549 NSCLC = tested on: A549 NSCLC
# ACHN renal = tested on: ACHN renal
# BT-549 breast = tested on: BT-549 breast
# CAKI-1 renal = tested on: CAKI-1 renal
# COLO 205 colon = tested on: COLO 205 colon
# DU-145 prostate = tested on: DU-145 prostate
# EKVX NSCLC = tested on: EKVX NSCLC
# HCT-116 colon = tested on: HCT-116 colon
# HCT-15 colon = tested on: HCT-15 colon
# HL-60(TB) leukemia = tested on: HL-60(TB) leukemia
# HOP-62 NSCLC = tested on: HOP-62 NSCLC
# HOP-92 NSCLC = tested on: HOP-92 NSCLC
# HT29 colon = tested on: HT29 colon
# IGROV1 ovarian = tested on: IGROV1 ovarian
# K-562 leukemia = tested on: K-562 leukemia
# KM12 colon = tested on: KM12 colon
# LOX IMVI melanoma = tested on: LOX IMVI melanoma
# M14 melanoma = tested on: M14 melanoma
# MCF7 breast = tested on: MCF7 breast
# MDA-MB-231 breast = tested on: MDA-MB-231 breast
# MDA-N = tested on: MDA-N
# MOLT-4 leukemia = tested on: MOLT-4 leukemia
# NCI-H226 lung = tested on: NCI-H226 lung
# NCI-H23 lung = tested on: NCI-H23 lung
# NCI-H460 lung = tested on: NCI-H460 lung
# NCI-H522 lung = tested on: NCI-H522 lung
# NCI/ADR-RES ovarian = tested on: NCI/ADR-RES ovarian
# OVCAR-3 ovarian = tested on: OVCAR-3 ovarian
# OVCAR-4 ovarian = tested on: OVCAR-4 ovarian
# OVCAR-5 ovarian = tested on: OVCAR-5 ovarian
# OVCAR-8 ovarian = tested on: OVCAR-8 ovarian
# PC-3 prostate = tested on: PC-3 prostate
# RPMI-8226 leukemia = tested on: RPMI-8226 leukemia
# RXF 393 renal = tested on: RXF 393 renal
# SF-268 CNS = tested on: SF-268 CNS
# SF-295 CNS = tested on: SF-295 CNS
# SF-539 CNS = tested on: SF-539 CNS
# SK-MEL-2 melanoma = tested on: SK-MEL-2 melanoma
# SK-MEL-28 melanoma = tested on: SK-MEL-28 melanoma
# SK-MEL-5 melanoma = tested on: SK-MEL-5 melanoma
# SK-OV-3 ovarian = tested on: SK-OV-3 ovarian
# SN12C renal = tested on: SN12C renal
# SNB-19 CNS = tested on: SNB-19 CNS
# SNB-75 CNS = tested on: SNB-75 CNS
# SW-620 colon = tested on: SW-620 colon
# T-47D breast = tested on: T-47D breast
# TK-10 renal = tested on: TK-10 renal
# U251 CNS = tested on: U251 CNS
# UACC-257 melanoma = tested on: UACC-257 melanoma
# UACC-62 melanoma = tested on: UACC-62 melanoma
# UO-31 renal = tested on: UO-31 renal
# CCRF-CEM leukemia = tested on: CCRF-CEM leukemia
# MALME-3M melanoma = tested on: MALME-3M melanoma
# MDA-MB-435 = tested on: MDA-MB-435
smiles,measurement,setting,value
NN/C(=N\S(=O)(=O)c1ccc(-c2ccccn2)s1)Nc1ccc(Cl)cc1,TGI,786-0 renal,> 100 µM
same,TGI,A498 renal,> 100 µM
same,TGI,A549 NSCLC,> 100 µM
same,TGI,ACHN renal,> 100 µM
same,TGI,BT-549 breast,> 100 µM
same,TGI,CAKI-1 renal,> 100 µM
same,TGI,COLO 205 colon,> 100 µM
same,TGI,DU-145 prostate,> 100 µM
same,TGI,EKVX NSCLC,> 100 µM
same,TGI,HCT-116 colon,> 100 µM
same,TGI,HCT-15 colon,> 100 µM
same,TGI,HL-60(TB) leukemia,> 100 µM
same,TGI,HOP-62 NSCLC,> 100 µM
same,TGI,HOP-92 NSCLC,> 100 µM
same,TGI,HT29 colon,> 100 µM
same,TGI,IGROV1 ovarian,> 100 µM
same,TGI,K-562 leukemia,> 100 µM
same,TGI,KM12 colon,> 100 µM
same,TGI,LOX IMVI melanoma,> 100 µM
same,TGI,M14 melanoma,> 100 µM
same,TGI,MCF7 breast,> 100 µM
same,TGI,MDA-MB-231 breast,> 100 µM
same,TGI,MDA-N,> 100 µM
same,TGI,MOLT-4 leukemia,> 100 µM
same,TGI,NCI-H226 lung,> 100 µM
same,TGI,NCI-H23 lung,> 100 µM
same,TGI,NCI-H460 lung,> 100 µM
same,TGI,NCI-H522 lung,57.1 µM
same,TGI,NCI/ADR-RES ovarian,> 100 µM
same,TGI,OVCAR-3 ovarian,> 100 µM
same,TGI,OVCAR-4 ovarian,> 100 µM
same,TGI,OVCAR-5 ovarian,> 100 µM
same,TGI,OVCAR-8 ovarian,> 100 µM
same,TGI,PC-3 prostate,> 100 µM
same,TGI,RPMI-8226 leukemia,> 100 µM
same,TGI,RXF 393 renal,94 µM
same,TGI,SF-268 CNS,84.2 µM
same,TGI,SF-295 CNS,> 100 µM
same,TGI,SF-539 CNS,> 100 µM
same,TGI,SK-MEL-2 melanoma,> 100 µM
same,TGI,SK-MEL-28 melanoma,> 100 µM
same,TGI,SK-MEL-5 melanoma,> 100 µM
same,TGI,SK-OV-3 ovarian,> 100 µM
same,TGI,SN12C renal,> 100 µM
same,TGI,SNB-19 CNS,> 100 µM
same,TGI,SNB-75 CNS,69.2 µM
same,TGI,SW-620 colon,> 100 µM
same,TGI,T-47D breast,> 100 µM
same,TGI,TK-10 renal,> 100 µM
same,TGI,U251 CNS,> 100 µM
same,TGI,UACC-257 melanoma,> 100 µM
same,TGI,UACC-62 melanoma,> 100 µM
same,TGI,UO-31 renal,> 100 µM
Cc1cc(-c2c(Br)cc(C(=O)O)n2C)on1,TGI,786-0 renal,> 100 µM
same,TGI,A498 renal,> 100 µM
same,TGI,A549 NSCLC,> 100 µM
same,TGI,ACHN renal,> 100 µM
same,TGI,BT-549 breast,> 100 µM
same,TGI,CAKI-1 renal,> 100 µM
same,TGI,CCRF-CEM leukemia,> 100 µM
same,TGI,COLO 205 colon,> 100 µM
same,TGI,DU-145 prostate,> 100 µM
same,TGI,EKVX NSCLC,> 100 µM
same,TGI,HCT-116 colon,> 100 µM
same,TGI,HCT-15 colon,> 100 µM
same,TGI,HL-60(TB) leukemia,> 100 µM
same,TGI,HOP-62 NSCLC,> 100 µM
same,TGI,HOP-92 NSCLC,> 100 µM
same,TGI,HT29 colon,> 100 µM
same,TGI,K-562 leukemia,> 100 µM
same,TGI,KM12 colon,> 100 µM
same,TGI,LOX IMVI melanoma,> 100 µM
same,TGI,M14 melanoma,> 100 µM
same,TGI,MALME-3M melanoma,> 100 µM
same,TGI,MDA-MB-231 breast,> 100 µM
same,TGI,MDA-MB-435,> 100 µM
same,TGI,MDA-N,> 100 µM
same,TGI,MOLT-4 leukemia,> 100 µM
same,TGI,NCI-H226 lung,> 100 µM
same,TGI,NCI-H23 lung,> 100 µM
same,TGI,NCI-H460 lung,> 100 µM
same,TGI,NCI-H522 lung,> 100 µM
same,TGI,NCI/ADR-RES ovarian,> 100 µM
same,TGI,OVCAR-3 ovarian,> 100 µM
same,TGI,OVCAR-4 ovarian,> 100 µM
same,TGI,OVCAR-5 ovarian,> 100 µM
same,TGI,OVCAR-8 ovarian,> 100 µM
same,TGI,PC-3 prostate,> 100 µM
same,TGI,RPMI-8226 leukemia,> 100 µM
same,TGI,SF-268 CNS,> 100 µM
same,TGI,SF-295 CNS,> 100 µM
same,TGI,SF-539 CNS,> 100 µM
same,TGI,SK-MEL-2 melanoma,> 100 µM
same,TGI,SK-MEL-28 melanoma,> 100 µM
same,TGI,SK-MEL-5 melanoma,> 100 µM
same,TGI,SK-OV-3 ovarian,> 100 µM
same,TGI,SN12C renal,> 100 µM
same,TGI,SNB-19 CNS,> 100 µM
same,TGI,SNB-75 CNS,> 100 µM
same,TGI,SW-620 colon,> 100 µM
same,TGI,T-47D breast,> 100 µM
same,TGI,TK-10 renal,> 100 µM
same,TGI,U251 CNS,> 100 µM
same,TGI,UACC-257 melanoma,> 100 µM
same,TGI,UACC-62 melanoma,> 100 µM
same,TGI,UO-31 renal,> 100 µM
